Article PMC10060569 (Frontiers in Pharmacology, 2023)

Target: T1, hP2X7R (Homo sapiens, UniProt Q99572)
T1 construct: expressed in transfected cells; host or cells: Xenopus laevis oocytes (cRNA injection)
T1 sequence (Q99572 1-595): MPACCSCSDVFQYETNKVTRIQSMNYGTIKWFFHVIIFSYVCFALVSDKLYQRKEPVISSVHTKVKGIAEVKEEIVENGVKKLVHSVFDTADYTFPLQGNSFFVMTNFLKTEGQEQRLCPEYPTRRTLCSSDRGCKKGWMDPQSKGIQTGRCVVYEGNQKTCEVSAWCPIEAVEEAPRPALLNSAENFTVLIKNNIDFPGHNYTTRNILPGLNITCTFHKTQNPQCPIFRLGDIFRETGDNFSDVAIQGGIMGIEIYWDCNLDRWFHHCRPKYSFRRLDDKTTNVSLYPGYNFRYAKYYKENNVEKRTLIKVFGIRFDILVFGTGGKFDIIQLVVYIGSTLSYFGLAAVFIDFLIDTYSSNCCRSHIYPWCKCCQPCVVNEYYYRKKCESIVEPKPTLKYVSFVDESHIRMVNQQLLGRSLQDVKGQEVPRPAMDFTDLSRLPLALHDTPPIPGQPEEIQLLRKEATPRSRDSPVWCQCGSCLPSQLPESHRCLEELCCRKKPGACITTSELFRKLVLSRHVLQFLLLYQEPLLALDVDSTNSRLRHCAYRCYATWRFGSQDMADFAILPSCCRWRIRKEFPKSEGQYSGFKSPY
Experiment: TEVC of ATP4--induced currents, hP2X7R in X. laevis oocytes (modified steady-state protocol)
Format: cell-based
Conditions: for IC50: estimated from few tested concentrations
Procedure: Ion currents mediated by P2X receptors were evoked by the indicated concentration of ATP or α,β-meATP and were recorded 1 or 2 days after cRNA injection at ambient temperature at a holding potential of −60 mV by two-electrode voltage clamp (TEVC) as previously described ([Hausmann et al., 2006]). Calcium-free ORi^− solution (90 mM NaCl, 1 mM KCl, 2 mM MgCl2, 10 mM HEPES, pH 7.4) was used to avoid bias due to calcium-activated chloride channels (CaCC) endogenously expressed in X. laevis oocytes ([Miledi, 1982]; [Methfessel et al., 1986]). For recordings of wt-hP2X7R, the composition of the ORi^− solution was modified according to protocols described previously and contained 100 mM NaCl, 2.5 mM KCl, 1 mM MgCl2, 5 mM HEPES, pH 7.4 ([Klapperstück et al., 2000]). The oocytes were continuously superfused with ORi^− by gravity flow (5–10 ml/min). The agonists ATP or α,β-meATP and the investigated NSAIDs were diluted in ORi^− on the day of the recording. The following agonist concentrations were used for the different P2X subtypes: 1 μM ATP (hP2X1R mutant, hP2X3R, rP2X3R, S^15V-hP2X3R, and S^15V-rP2X3R); 10 μM ATP (hP2X2R and hP2X4R); 300 μM free ATP^4- (hP2X7R); and 1 μM α,β-meATP (hP2X2/3R). A peak current protocol (Supplementary Figure S1) was used to analyze fast- and intermediate desensitizing P2XR subtypes (P2X1R, P2X3R, and S^15V-P2X3R), and a steady-state protocol (Supplementary Figure S2) was used for slowly or partially desensitizing P2X subtypes (P2X2R, P2X2/3R, and P2X4R). For recordings of P2X7R, a modified steady-state protocol was used ([Hausmann et al., 2006]). The application of different bath solutions was controlled by computer-operated magnetic valves controlled by the CellWorks E 5.5.1 software (npi electronic, Tamm, Germany).
In the case of hP2X7R, the control current in the absence of the antagonist had to be extrapolated (Supplementary Figure S4 and Supplementary Figure S5) presuming a linear increase in permeability during continuous ATP application ([North, 2002]) since the permeability of the receptor is affected by the antagonist.
For recordings of P2X7R, most scientists use divalent-free solutions such as ORi supplemented with 100 µM flufenamic acid (FFA) as an unselective ion channel blocker to inhibit non-specific chloride conductance in the absence of divalent ions ([Weber et al., 1995]; [Hülsmann et al., 2003]). However, since FFA is one of the investigated NSAIDs, this supplement was not reasonable. Therefore, the composition of the ORi-solution was modified as follows: 100 mM NaCl, 2.5 mM KCl, 1 mM MgCl2, 5 mM HEPES, pH 7.4, and according to former protocols ([Klapperstück et al., 2000]), a free ATP^4−concentration of 300 µM was adjusted.

Structure (SMILES)	reduction of ATP4--induced current amplitude by 300 µM diclofenac (300 µM diclofenac, 300 µM free ATP4-)	IC50 (300 µM free ATP4-)	reversibility of the effect on hP2X7R-mediated current responses (slope of current before and after FFA application)
O=C(O)Cc1ccccc1Nc1c(Cl)cccc1Cl [Diclofenac, diclofenac]	approximately 33%	> 300 µM	–
O=C(O)c1ccccc1Nc1cccc(C(F)(F)F)c1 [Flufenamic acid, flufenamic acid]	–	~900 µM	potentially irreversible
